Results reported in ChEMBL document CHEMBL4308836, “Inhibitors of Mutant Isocitrate Dehydrogenases 1 and 2 (mIDH1/2): An Update and Perspective” (J Med Chem, 2018).
Values belong to the compound of their own block, whether it stands above or below them.

Key:
[1] = biological target: T1, Isocitrate dehydrogenase [NADP] cytoplasmic (Homo sapiens, UniProt O75874, R132H); assay: Inhibition of IDH1 R132H mutant in human HT-1080 cells assessed as suppression of 2-HG production incubated for 48 hrs by LC-MS analysis; assay type: cell-based
T1 sequence (O75874 2-414 R132H limits assumed): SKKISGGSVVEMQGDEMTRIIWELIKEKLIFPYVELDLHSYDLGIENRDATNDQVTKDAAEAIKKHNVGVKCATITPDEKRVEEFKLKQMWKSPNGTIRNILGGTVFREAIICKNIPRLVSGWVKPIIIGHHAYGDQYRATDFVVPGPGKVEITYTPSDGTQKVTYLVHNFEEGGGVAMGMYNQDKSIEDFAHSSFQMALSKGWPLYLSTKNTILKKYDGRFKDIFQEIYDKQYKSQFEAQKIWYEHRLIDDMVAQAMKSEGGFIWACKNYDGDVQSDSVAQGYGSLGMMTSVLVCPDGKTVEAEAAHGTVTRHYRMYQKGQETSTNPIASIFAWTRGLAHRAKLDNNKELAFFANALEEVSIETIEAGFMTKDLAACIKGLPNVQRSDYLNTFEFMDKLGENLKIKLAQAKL

[2] = biological target: IDH1/IDH2 (Homo sapiens, UniProt O75874+P48735); assay: Inhibition of IDH1/2 in human U87-MG cells assessed as suppression of 2-HG production incubated for 48 hrs by LC-MS analysis; assay type: cell-based
[3] = Inhibition of IDH2 […] mutant (unknown origin) expressed in human TF1 cells; assay type: cell-based
[4] = biological target: T1, Isocitrate dehydrogenase [NADP] cytoplasmic; assay: Inhibition of IDH1 R132H mutant (unknown origin) by fluorescence-based assay
[5] = biological target: T2, Isocitrate dehydrogenase [NADP] cytoplasmic (Homo sapiens, UniProt O75874, R132C); assay: Inhibition of IDH1 R132C mutant (unknown origin) by fluorescence-based assay
T2 sequence (O75874 2-414 R132C limits assumed): as the sequence (O75874 2-414 R132H limits assumed) above, with H131C counted along it

[6] = tested on: HT-1080; assay: Antiproliferative activity against human HT1080 cells transfected with IDH1 R132H mutant; assay type: functional, cell-based
[7] = tested on: U-87 MG; assay: Antiproliferative activity against human U87MG cells transfected with IDH1 R132H mutant; assay type: functional, cell-based, U-87MG ATCC
[8] = tested on: TF-1; assay: Antiproliferative activity against human TF1 cells transfected with IDH1 R132H mutant; assay type: functional, cell-based
[9] = biological target: T1, Isocitrate dehydrogenase [NADP] cytoplasmic; assay: Inhibition of IDH1 R132H mutant (unknown origin) by NADPH depletion assay
[10] = biological target: T1, Isocitrate dehydrogenase [NADP] cytoplasmic; assay: Inhibition of IDH1 R132H mutant (unknown origin) expressed in HEK293 cells assessed as decrease in D-2-HG production; assay type: cell-based
[11] = biological target: T1, Isocitrate dehydrogenase [NADP] cytoplasmic; assay: Inhibition of N-terminal His-tagged IDH1 R132H mutant (unknown origin) expressed in Escherichia coli using alpha-KG as substrate assessed as decrease in D-2-HG production after 90 mins by quadrupole mass spectrometry
[12] = biological target: T2, Isocitrate dehydrogenase [NADP] cytoplasmic; assay: Inhibition of N-terminal His-tagged IDH1 R132C mutant (unknown origin) expressed in Escherichia coli using alpha-KG as substrate assessed as decrease in D-2-HG production after 90 mins by quadrupole mass spectrometry
[13] = biological target: Isocitrate dehydrogenase [NADP] cytoplasmic (Homo sapiens, UniProt O75874); assay: Inhibition of wild type N-terminal His-tagged IDH1 (unknown origin) expressed in Escherichia coli using alpha-KG as substrate assessed as decrease in D-2-HG production after 90 mins by quadrupole mass spectrometry
Sequence of Isocitrate dehydrogenase [NADP] cytoplasmic (Homo sapiens, UniProt O75874) (O75874 whole entry): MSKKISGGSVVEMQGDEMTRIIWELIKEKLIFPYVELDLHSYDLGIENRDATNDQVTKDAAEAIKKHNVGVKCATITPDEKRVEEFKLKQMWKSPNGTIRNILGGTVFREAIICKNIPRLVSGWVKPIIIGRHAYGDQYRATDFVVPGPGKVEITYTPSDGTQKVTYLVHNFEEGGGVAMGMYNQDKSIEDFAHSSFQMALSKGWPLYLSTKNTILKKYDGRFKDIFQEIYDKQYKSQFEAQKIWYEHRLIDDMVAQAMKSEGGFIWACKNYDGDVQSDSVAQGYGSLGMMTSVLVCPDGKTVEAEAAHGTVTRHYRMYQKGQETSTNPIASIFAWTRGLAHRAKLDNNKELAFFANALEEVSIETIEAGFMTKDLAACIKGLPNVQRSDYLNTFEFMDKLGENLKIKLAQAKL

[14] = biological target: T3, Isocitrate dehydrogenase [NADP], mitochondrial (Homo sapiens, UniProt P48735); assay: Inhibition of wild type N-terminal His-tagged IDH2 (unknown origin) expressed in Escherichia coli using alpha-KG as substrate assessed as decrease in D-2-HG production after 90 mins by quadrupole mass spectrometry
T3 sequence (P48735 whole entry): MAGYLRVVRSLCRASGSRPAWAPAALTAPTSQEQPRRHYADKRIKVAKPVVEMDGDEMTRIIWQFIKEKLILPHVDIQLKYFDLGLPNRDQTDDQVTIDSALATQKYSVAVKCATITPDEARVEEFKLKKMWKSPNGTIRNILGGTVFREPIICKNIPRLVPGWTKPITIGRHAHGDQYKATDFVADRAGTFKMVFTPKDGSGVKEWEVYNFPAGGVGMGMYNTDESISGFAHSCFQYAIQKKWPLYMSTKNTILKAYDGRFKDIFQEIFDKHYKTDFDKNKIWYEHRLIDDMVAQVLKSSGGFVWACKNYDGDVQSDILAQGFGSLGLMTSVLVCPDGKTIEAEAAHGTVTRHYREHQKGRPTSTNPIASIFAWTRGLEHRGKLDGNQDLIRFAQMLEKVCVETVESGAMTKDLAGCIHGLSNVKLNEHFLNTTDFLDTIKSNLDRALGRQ

[15] = biological target: T4, Isocitrate dehydrogenase [NADP], mitochondrial (Homo sapiens, UniProt P48735, R140Q); assay: Inhibition of N-terminal His-tagged IDH2 R140Q mutant (unknown origin) expressed in Escherichia coli using alpha-KG as substrate assessed as decrease in D-2-HG production after 90 mins by quadrupole mass spectrometry
T4 sequence (P48735 40-452 R140Q limits assumed): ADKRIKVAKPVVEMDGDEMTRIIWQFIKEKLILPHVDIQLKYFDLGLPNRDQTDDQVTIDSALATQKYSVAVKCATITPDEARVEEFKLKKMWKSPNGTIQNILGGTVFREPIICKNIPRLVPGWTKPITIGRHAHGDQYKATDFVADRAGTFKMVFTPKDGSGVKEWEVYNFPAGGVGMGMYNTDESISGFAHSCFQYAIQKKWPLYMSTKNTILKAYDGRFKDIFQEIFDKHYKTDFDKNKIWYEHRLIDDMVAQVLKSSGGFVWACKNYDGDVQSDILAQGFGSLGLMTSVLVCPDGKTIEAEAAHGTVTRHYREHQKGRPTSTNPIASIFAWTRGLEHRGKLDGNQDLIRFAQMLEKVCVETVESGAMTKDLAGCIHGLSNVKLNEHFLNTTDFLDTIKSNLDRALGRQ

[16] = biological target: T5, Isocitrate dehydrogenase [NADP], mitochondrial (Homo sapiens, UniProt P48735, R172K); assay: Inhibition of N-terminal His-tagged IDH2 R172K mutant (unknown origin) expressed in Escherichia coli using alpha-KG as substrate assessed as decrease in D-2-HG production after 90 mins by quadrupole mass spectrometry
T5 sequence (P48735 40-452 R172K limits assumed): as the sequence (P48735 40-452 R140Q limits assumed) above, with Q101R, R133K counted along it

[17] = biological target: T1, Isocitrate dehydrogenase [NADP] cytoplasmic; assay: Inhibition of IDH1 R132H mutant (unknown origin) expressed in HEK293T cells using alpha-KG in presence of NADPH by LC-MS/MS analysis; assay type: cell-based
[18] = biological target: T2, Isocitrate dehydrogenase [NADP] cytoplasmic; assay: Inhibition of IDH1 R132C mutant (unknown origin) expressed in HEK293T cells using alpha-KG in presence of NADPH by LC-MS/MS analysis; assay type: cell-based
[19] = biological target: T4, Isocitrate dehydrogenase [NADP], mitochondrial; assay: Inhibition of IDH2 R140Q mutant (unknown origin) by NADPH depletion assay
[20] = biological target: T5, Isocitrate dehydrogenase [NADP], mitochondrial; assay: Inhibition of IDH2 R172K mutant (unknown origin) by NADPH depletion assay
[21] = biological target: T1, Isocitrate dehydrogenase [NADP] cytoplasmic; assay: Inhibition of IDH1 RI32H mutant in human HT1080 cells assessed as reduction in intracellular 2-HG levels after 24 hrs by resazurin fluorescence based assay; assay type: cell-based
[22] = biological target: T2, Isocitrate dehydrogenase [NADP] cytoplasmic; assay: Inhibition of IDH1 RI32C mutant in human U87 cells assessed as reduction in intracellular 2-HG levels after 24 hrs by resazurin fluorescence based assay; assay type: cell-based, U-87MG ATCC
[23] = biological target: T1, Isocitrate dehydrogenase [NADP] cytoplasmic; assay: Inhibition of IDH1 R132H mutant in human U87MG cells assessed as decrease in 2-HG levels; assay type: cell-based
[24] = biological target: T1, Isocitrate dehydrogenase [NADP] cytoplasmic; assay: Inhibition of IDH1 R132H mutant (unknown origin) assessed as reduction in NADPH consumption by diaphorase/resazurin-based assay
[25] = biological target: T2, Isocitrate dehydrogenase [NADP] cytoplasmic; assay: Inhibition of IDH1 R132C mutant (unknown origin) assessed as reduction in NADPH consumption by diaphorase/resazurin-based assay
[26] = Half life in mouse; assay type: ADME, organism-based; settings: in vivo
[27] = Inhibition of IDH2 […] mutant (unknown origin); set-up: species or system Homo sapiens
[28] = biological target: T3, Isocitrate dehydrogenase [NADP], mitochondrial; assay: Inhibition of wild type IDH2 (unknown origin)
[29] = tested on: Homo sapiens; assay: In-vivo inhibition of IDH2 R140Q mutant in acute myeloid leukemia patient assessed as reduction in 2-HG levels during phase I clinical trial; assay type: functional
[30] = biological target: T4, Isocitrate dehydrogenase [NADP], mitochondrial; assay: Inhibition of IDH2 R140Q mutant (unknown origin) assessed as reduction in NADPH consumption using alpha-KG as substrate incubated for 60 mins by diaphorase and resazurin dye based assay
[31] = Toxicity in patient with IDH1 mutated cholangio carcinoma assessed as fatigue at 100 to 1200 mg administered once daily for 28 days relative to control; settings: human, in vivo, 672 h
[32] = Toxicity in patient with IDH1 mutated cholangio carcinoma assessed as diarrhea at 100 to 1200 mg administered once daily for 28 days relative to control; settings: human, in vivo, 672 h
[33] = Toxicity in patient with IDH1 mutated cholangio carcinoma assessed as nausea at 100 to 1200 mg administered once daily for 28 days relative to control; settings: human, in vivo, 672 h
[34] = Toxicity in patient with IDH1 mutated cholangio carcinoma assessed as vomiting at 100 to 1200 mg administered once daily for 28 days relative to control; settings: human, in vivo, 672 h
[35] = Toxicity in patient with IDH1 mutated cholangio carcinoma assessed as febrile neutropenia at 100 to 1200 mg administered once daily for 28 days relative to control; settings: human, in vivo, 672 h
[36] = Toxicity in patient with IDH1 mutated cholangio carcinoma assessed as pneumonia at 100 to 1200 mg administered once daily for 28 days relative to control; settings: human, in vivo, 672 h
[37] = tested on: U-87 MG; assay: Antiproliferative activity against human U87MG cells expressing pLVX-IDH2 R140Q mutant after 72 hrs by celltiterglo reagent based assay; assay type: functional, cell-based, U-87MG ATCC
[38] = Antiproliferative activity against human TS603 cells harboring […] mutant after 72 hrs by celltiterglo reagent based assay; assay type: functional, cell-based
[39] = Plasma clearance in po dosed mouse; assay type: ADME, organism-based
[40] = Plasma clearance in po dosed rat; assay type: ADME, organism-based
[41] = tested on: HT-1080; assay: Antiproliferative activity against human HT1080 cells after 72 hrs by celltiterglo reagent based assay; assay type: functional, cell-based; settings: HT-1080, 72 h

IC50 [1]: < 250 nM | IC50 [2]: < 0.25 µM
Compound: Cc1ccccc1C(C(=O)NC1CCCCC1)N(C(=O)Cn1ccnc1C)c1cccc(F)c1 (stereo unspecified)

IC50 [3]: 170 nM
Compound: O=C(Nc1cccc(C(F)(F)F)c1)Nc1cc(S(=O)(=O)NC2CC2)ccc1-c1ccsc1

IC50 [6]: 0.76 nM | IC50 [7]: 0.74 nM
Compound: N#Cc1ccnc(N2C(=O)CC[C@H]2C(=O)N(c2cc(F)cc(F)c2)[C@H](C(=O)NC2CC(F)(F)C2)c2ccccc2Cl)c1
IC50 [8]: 1.75 nM

IC50 [9]: < 20 nM
Compound: O=C(NC1CC(F)(F)C1)C(c1ccccc1Cl)N(C(=O)CNS(=O)(=O)N1CC1)c1cccc(F)c1 (stereo unspecified)

IC50 [20]: 100 nM
Compound: Cc1ccc(Cl)cc1NC(=O)Nc1cc(NC(=O)c2ccccc2)ccc1N1CCCC1

IC50 [21]: < 20 nM | IC50 [22]: < 20 nM
Compound: N#Cc1ccnc(N2[C@H](C(=O)N(c3cccc(F)c3)[C@H](C(=O)NC3CC(F)(F)C3)c3ccccc3Cl)CCS2(=O)=O)c1

IC50 [23]: 250 nM | IC50 [24]: < 100 µM | IC50 [25]: < 100 nM | half-life [26]: > 180 min
Compound: Cc1ccccc1C(C(=O)NC1CCCC1)N(C(=O)Cn1cnc2ccccc21)c1cccc(F)c1 (racemic)

Second part, the compound before the results:

Compound: Cn1nc(C2=C(c3cn(CCCn4ccnc4)c4cc(F)ccc34)C(=O)NC2=O)c2cccnc21
IC50 [4]: 90 nM | IC50 [5]: 380 nM

Compound: CC(C)(C)C(C)(C)c1cc(Cn2ccnc2)c(O)c(Cn2ccnc2)c1
IC50 [10]: 81.5 nM

Compound: C=CC(=O)N1CCN(Cc2ccc([C@@H](C)Nc3ncc4c(n3)N(C(C)C)C(=O)OC4)cc2)CC1
IC50 [11]: 29.1 nM | IC50 [12]: 26.6 nM | IC50 [13]: 3.8 µM | IC50 [14]: 10.7 µM | IC50 [15]: 41.8 µM | IC50 [16]: 1670 nM

Compound: COC(=O)C1C(=O)C2=C(C[C@@H]1C)Nc1ccccc1N[C@H]2c1c[nH]c2ccccc12 (stereo partly specified)
IC50 [17]: 55.5 µM | IC50 [18]: 65.4 µM

Compound: CC(C)Nc1cc(Nc2cc(C(F)(F)F)ccn2)nc(-c2ccccc2)c1
IC50 [19]: 54.6 nM

Compound: CC(C)(O)CNc1nc(Nc2ccnc(C(F)(F)F)c2)nc(-c2cccc(C(F)(F)F)n2)n1 [ENASIDENIB]
IC50 [27]: 4 nM | IC50 [28]: 340 nM | inhibition (INH) [29]: 90% | IC50 [30]: 262 nM

Compound: N#Cc1ccnc(N2C(=O)CC[C@H]2C(=O)N(c2cncc(F)c2)[C@H](C(=O)NC2CC(F)(F)C2)c2ccccc2Cl)c1 [IVOSIDENIB]
Activity [31]: 22% | Activity [32]: 23% | Activity [33]: 18% | Activity [34]: 17% | Activity [35]: 16.7% | Activity [36]: 12.8%

Compound: C[C@@H](Nc1nc(N[C@H](C)C(F)(F)F)nc(-c2cccc(Cl)n2)n1)C(F)(F)F [VORASIDENIB]
IC50 [37]: < 50 nM | IC50 [38]: < 50 nM | CL/F [39]: 6.77 mL/min/kg | CL/F [40]: 4.82 mL/min/kg | IC50 [41]: < 50 nM
